Measured values as given in patent US20070049564A1 (Wyeth, priority 2005, published 2007).
Converted amounts (≈) assume the structure as drawn. Like-named read-outs stand apart in the source and are kept apart here.

What was measured:
c. albicans GC 3066 = assay: MIC, broth microdilution
S. pneumoniae+ GC 4465 = assay: MIC, broth microdilution; conditions: Streptococcus pneumoniae, S. pneumoniae+ GC 4465
S. aureus GC 2216 = assay: MIC, broth microdilution; conditions: Staphylococcus aureus, GC2216, S. aureus GC 2216
S. typhimurium GC 2172 = assay: MIC, broth microdilution; conditions: Salmonella enterica, TYPHIMURIUM, S. typhimurium GC 2172
S. aureus GC 1131 = assay: MIC, broth microdilution; conditions: Staphylococcus aureus, GC1131, S. aureus GC 1131
Staph. aureus Smith = assay: In vivo activity (oral, iv; ED50) against Staph. aureus Smith in mice
Procedure: Representative examples of compounds of Formula I were tested for the oral efficacy using S. aureus Smith in mice.

E. faecalis GC 2267 = assay: MIC, broth microdilution; conditions: Enterococcus faecalis, GC2267, E. faecalis GC 2267
E. coli GC 2231 = assay: MIC, broth microdilution; conditions: Escherichia coli, GC2231, E. coli GC 2231
E. faecium GC 2243 = assay: MIC, broth microdilution; conditions: Enterococcus faecium, GC2243, E. faecium GC 2243
E. coli GC 3226 = assay: MIC, broth microdilution; conditions: Escherichia coli, GC3226, E. coli GC 3226
E. faecium GC 4556 = assay: MIC, broth microdilution; conditions: Enterococcus faecium, GC4556, E. faecium GC 4556
S. pneumoniae* GC 4465 = assay: MIC, broth microdilution; conditions: Streptococcus pneumoniae, S. pneumoniae* GC 4465
E. coli GC 2272 = assay: MIC, broth microdilution; conditions: Escherichia coli, GC2272, E. coli GC 2272
E. coli GC 2234 = assay: MIC, broth microdilution; conditions: Escherichia coli, GC2234, E. coli GC 2234
S. aureus GC 6466 = assay: MIC, broth microdilution; conditions: Staphylococcus aureus, GC6466, S. aureus GC 6466
S. aureus GC 6335 = assay: MIC, broth microdilution; conditions: Staphylococcus aureus, GC6335, S. aureus GC 6335
S. pyogenes GC 4563 = assay: MIC, broth microdilution; conditions: Streptococcus pyogenes, GC4563, S. pyogenes GC 4563
E. coli GC 2232 = assay: MIC, broth microdilution; conditions: Escherichia coli, GC2232, E. coli GC 2232
S. aureus GC 1079 = assay: MIC, broth microdilution; conditions: Staphylococcus aureus, GC1079, S. aureus GC 1079
S. epidermidis GC 4935 = assay: MIC, broth microdilution; conditions: Staphylococcus epidermidis, GC4935, S. epidermidis GC 4935
Procedure: Antimicrobial susceptibility testing. The in vitro activities of the antibiotics are determined by the broth microdilution method as recommended by the National Committee for Clinical Laboratory Standards (NCCLS) (1). Mueller-Hinton II broth (MHBII)(BBL Cockeysville, Md.) is the medium employed in the testing procedures. Microtiter plates containing serial dilutions of each antimicrobial agent are inoculated with each organism to yield the appropriate density (10^5 CFU/ml) in a 100 μl final volume. The plates are incubated for 18-22 hours at 35° C. in ambient air.
Representative compounds were first incubated in mouse serum for an hour prior to the in vitro testing against a panel of selected gram-positive and gram-negative bacteria strains. All compounds were also pre-incubated in water for an hour prior to testing as control. Representative compounds of Formula I were incubated in human serum prior to MIC determination.

[1] = c. albicans GC 3066, Water pre-incubation
[2] = Staphylococcus aureus, in Mus musculus, po, read-out: ED50 Staph Smith SOD
[3] = iv, read-out: ED50 Staph Smith SIV

Row | Compound | MIC (c. albicans GC 3066; Candida albicans, GC3066) [µg/mL] | MIC (c. albicans GC 3066; [1]) [UG/ML] | MIC (S. pneumoniae+ GC 4465; Mouse Serum pre-incubation) [µg/mL] | MIC (S. pneumoniae+ GC 4465; Water pre-incubation) [µg/mL] | MIC (S. aureus GC 2216; Mouse Serum pre-incubation) [µg/mL] | MIC (S. aureus GC 2216; Water pre-incubation) [µg/mL] | MIC (S. typhimurium GC 2172; Mouse Serum pre-incubation) [µg/mL] | MIC (S. typhimurium GC 2172; Water pre-incubation) [µg/mL] | MIC (S. aureus GC 1131; Mouse Serum pre-incubation) [µg/mL] | MIC (S. aureus GC 1131; Water pre-incubation) [µg/mL] | ED50 (Staph. aureus Smith; [2]) [mg/kg] | ED50 (Staph. aureus Smith; [3]) [mg/kg] | MIC (E. faecalis GC 2267; Mouse Serum pre-incubation) [µg/mL] | MIC (E. faecalis GC 2267; Water pre-incubation) [µg/mL] | MIC (E. coli GC 2231; Mouse Serum pre-incubation) [µg/mL] | MIC (E. coli GC 2231; Water pre-incubation) [µg/mL] | MIC (E. faecium GC 2243; Mouse Serum pre-incubation) [µg/mL] | MIC (E. faecium GC 2243; Water pre-incubation) [µg/mL] | MIC (E. coli GC 3226; Mouse Serum pre-incubation) [µg/mL] | MIC (E. coli GC 3226; Water pre-incubation) [µg/mL] | also measured
1 | CCCN(CC(=O)Nc1cc(N(C)C)c2c(c1O)C(=O)C1=C(O)[C@]3(O)C(=O)C(C(N)=O)=C(O)[C@@H](N(C)C)[C@@H]3C[C@@H]1C2)C(=O)OCOC(=O)Cc1ccccc1 [Example 11, ({[(2-{[(5aR,6aS,7S,10aS)-9-(aminocarbonyl)-4,7-bis(dimethylamino)-1,8,10a,11′-tetrahydroxy-10,12-dioxo-5,5a,6,6a,7,10,10a,12-octahydrotetracen-2-yl]amino}-2-oxoethyl)(propyl)amino]carbonyl}oxy)methyl phenylacetate] | > 64 | >64 | 2 (≈ 2.62 µM) | 2 (≈ 2.62 µM) | 0.5 (≈ 0.655 µM) | 0.5 (≈ 0.655 µM) | 4 (≈ 5.24 µM) | > 64 | 0.25 (≈ 0.327 µM) | 0.25 (≈ 0.327 µM) | 30.3 | 0.59 | 2 (≈ 2.62 µM) | 2 (≈ 2.62 µM) | 2 (≈ 2.62 µM) | 64 (≈ 83.8 µM) | 0.12 (≈ 0.157 µM) | 0.25 (≈ 0.327 µM) | 0.5 (≈ 0.655 µM) | > 64 | MIC (E. faecium GC 4556; Mouse Serum pre-incubation): 0.25 µg/mL (≈ 0.327 µM); MIC (E. faecium GC 4556; Water pre-incubation): 0.5 µg/mL (≈ 0.655 µM); MIC (S. pneumoniae* GC 4465; Mouse Serum pre-incubation): < 0.06 µg/mL; MIC (S. pneumoniae* GC 4465; Water pre-incubation): < 0.06 µg/mL; MIC (E. coli GC 2272; Mouse Serum pre-incubation): 0.25 µg/mL (≈ 0.327 µM); MIC (E. coli GC 2272; Water pre-incubation): 4 µg/mL (≈ 5.24 µM); MIC (E. coli GC 2234; Mouse Serum pre-incubation): 0.5 µg/mL (≈ 0.655 µM); MIC (E. coli GC 2234; Water pre-incubation): 16 µg/mL (≈ 20.9 µM); MIC (S. aureus GC 6466; Mouse Serum pre-incubation): 0.25 µg/mL (≈ 0.327 µM); MIC (S. aureus GC 6466; Water pre-incubation): 0.25 µg/mL (≈ 0.327 µM); MIC (S. aureus GC 6335; Mouse Serum pre-incubation): 1 µg/mL (≈ 1.31 µM); MIC (S. aureus GC 6335; Water pre-incubation): 1 µg/mL (≈ 1.31 µM); MIC (S. pyogenes GC 4563; Mouse Serum pre-incubation): < 0.06 µg/mL; MIC (S. pyogenes GC 4563; Water pre-incubation): < 0.06 µg/mL; MIC (E. coli GC 2232; Mouse Serum pre-incubation): 1 µg/mL (≈ 1.31 µM); MIC (E. coli GC 2232; Water pre-incubation): 16 µg/mL (≈ 20.9 µM); MIC (S. aureus GC 1079; Mouse Serum pre-incubation): 2 µg/mL (≈ 2.62 µM); MIC (S. aureus GC 1079; Water pre-incubation): 4 µg/mL (≈ 5.24 µM); MIC (S. epidermidis GC 4935; Mouse Serum pre-incubation): 1 µg/mL (≈ 1.31 µM); MIC (S. epidermidis GC 4935; Water pre-incubation): 2 µg/mL (≈ 2.62 µM)
2 | CCCCN(CC(=O)Nc1cc(N(C)C)c2c(c1O)C(=O)C1=C(O)[C@]3(O)C(=O)C(C(N)=O)=C(O)[C@@H](N(C)C)[C@@H]3C[C@@H]1C2)C(=O)OCOC(=O)Cc1ccccc1 [Example 12, ({[(2-{[(5aR,6aS,7S,10aS)-9-(aminocarbonyl)-4,7-bis(dimethylamino)-1,8,10a,11-tetrahydroxy-10,12-dioxo-5,5a,6,6a,7,10,10a,12-octahydrotetracen-2-yl]amino}-2-oxoethyl)(butyl)amino]carbonyl}oxy)methyl phenylacetate] | > 64 | >64 | 4 (≈ 5.14 µM) | 8 (≈ 10.3 µM) | 1 (≈ 1.29 µM) | 4 (≈ 5.14 µM) | 4 (≈ 5.14 µM) | > 64 | 1 (≈ 1.29 µM) | 2 (≈ 2.57 µM) | 15 | 1 | 2 (≈ 2.57 µM) | 8 (≈ 10.3 µM) | 2 (≈ 2.57 µM) | 64 (≈ 82.3 µM) | 0.5 (≈ 0.643 µM) | 4 (≈ 5.14 µM) | 2 (≈ 2.57 µM) | 64 (≈ 82.3 µM) | MIC (E. faecium GC 4556; Mouse Serum pre-incubation): 1 µg/mL (≈ 1.29 µM); MIC (E. faecium GC 4556; Water pre-incubation): 4 µg/mL (≈ 5.14 µM); MIC (S. pneumoniae* GC 4465; Mouse Serum pre-incubation): < 0.06 µg/mL; MIC (S. pneumoniae* GC 4465; Water pre-incubation): 0.12 µg/mL (≈ 0.154 µM); MIC (E. coli GC 2272; Mouse Serum pre-incubation): 1 µg/mL (≈ 1.29 µM); MIC (E. coli GC 2272; Water pre-incubation): 16 µg/mL (≈ 20.6 µM); MIC (E. coli GC 2234; Mouse Serum pre-incubation): 1 µg/mL (≈ 1.29 µM); MIC (E. coli GC 2234; Water pre-incubation): 16 µg/mL (≈ 20.6 µM); MIC (S. aureus GC 6466; Mouse Serum pre-incubation): 0.5 µg/mL (≈ 0.643 µM); MIC (S. aureus GC 6466; Water pre-incubation): 1 µg/mL (≈ 1.29 µM); MIC (S. aureus GC 6335; Mouse Serum pre-incubation): 1 µg/mL (≈ 1.29 µM); MIC (S. aureus GC 6335; Water pre-incubation): 2 µg/mL (≈ 2.57 µM); MIC (S. pyogenes GC 4563; Mouse Serum pre-incubation): 0.12 µg/mL (≈ 0.154 µM); MIC (S. pyogenes GC 4563; Water pre-incubation): 0.25 µg/mL (≈ 0.321 µM); MIC (E. coli GC 2232; Mouse Serum pre-incubation): 0.5 µg/mL (≈ 0.643 µM); MIC (E. coli GC 2232; Water pre-incubation): 32 µg/mL (≈ 41.1 µM); MIC (S. aureus GC 1079; Mouse Serum pre-incubation): 2 µg/mL (≈ 2.57 µM); MIC (S. aureus GC 1079; Water pre-incubation): 8 µg/mL (≈ 10.3 µM); MIC (S. epidermidis GC 4935; Mouse Serum pre-incubation): 4 µg/mL (≈ 5.14 µM); MIC (S. epidermidis GC 4935; Water pre-incubation): 8 µg/mL (≈ 10.3 µM)
